Test results published in patent publication US7611630B2, “Method and device for evaluation of pharmaceutical compositions” (Bend Research, Inc., priority 2004, dated 2009).
Values after ≈ are worked out from the molar mass of the structure shown. Read-outs that look alike come from different tables or passages of the source.

Tests used:
[1] = partition coefficient between organic fluid and water, from solubility ratio
Description: [formula] where m is the rate at which drug is transported across the membrane (g/sec), Vp is the volume of the permeate solution (cm^3), [D]p is the concentration of drug in the permeate solution (g/cm^3), t is the time (sec), am is the membrane area (cm^2), Pov is the overall permeability coefficient (cm/sec), [Ddissolved]f is the concentration of dissolved drug in the feed solution (g/cm^3), and kp,mem is the partition coefficient of drug between the organic fluid and water, which is defined as the ratio of (1) the concentration of drug in the organic fluid, and (2) the concentration of dissolved neutral drug in the aqueous feed solution when the two solutions are at equilibrium. The partition coefficient can be estimated from the ratio of (1) the solubility of drug in the organic fluid and (2) the solubility of the dissolved drug in the aqueous feed solution.
The organic fluid consisted of 4 mL of decanol, which was added to the permeate reservoir. […] An overhead stirrer was used to stir the decanol permeate solution at 100 rpm.
The organic fluid used in these tests consisted of 5 mL of 20 wt % decanol in decane.

[2] = not told, 120 μg/mL
[3] = physchem
[4] = in vivo oral dosing of OPC, plasma concentration; conditions: dog, beagle dogs, Fed
Procedure: The compositions tested in vitro in Examples 3-6 were tested in vivo to determine whether the in vitro results correlate with the in vivo results. For Examples 7 and 8, the composition was the same as that used in Example 3 (25% Drug 1:HPMCAS-M dispersion) dosed in the fasted state, and fed state, respectively. For Examples 9 and 10, the composition was the same as that used in Example 4 (crystalline Drug 1) dosed in the fasted state and fed state, respectively.
The compositions were orally dosed to beagle dogs in the form of an oral powder for constitution (OPC) by suspending the composition in about 15 mL of a solution of 3 wt % polyethylene glycol (PEG) with a molecular weight of 3,350 daltons, 0.5 wt % methylcellulose, and 0.15 wt % Polysorbate 80 in sterile water. In each case a sufficient amount of the pharmaceutical composition was used such that the OPC contained 90 mgA of Drug 1. The thus-formed OPCs were then dosed to dogs in either the fed state or fasted state (fasted overnight). Blood was collected from the jugular vein of the dogs before dosing and at various time points after dosing. To 100 μL of each plasma sample, 5 mL of methyl-tert-butyl ether (MTBE) and 1 mL of 500 mM sodium carbonate buffer (pH 9) were added; the sample was vortexed for 1 minute and then centrifuged for 5 minutes. The aqueous portion of the sample was frozen in a dry-ice/acetone bath, and the MTBE layer was decanted and evaporated in a vortex evaporator. Dried samples were reconstituted in 100 μL of mobile phase (33% acetonitrile and 67% of 0.1% formic acid in water). Analysis was carried out by HPLC.
The results of these tests are shown in Table 7, where Cmax,24 is the maximum concentration in the blood plasma during the first 24 hours, Tmax is the time to achieve the maximum concentration in the blood plasma and AUC0-24 is the concentration in the blood plasma area under the curve in the first 24 hours.

[5] = membrane-permeation test with un-treated (hydrophobic) microporous membrane; type: in vitro ADME
Procedure: A series of tests were performed using the procedure outlined in Example 1 except that an un-treated ACCUREL® PP 1E microporous polypropylene membrane was utilized in the test apparatus. The contact angle of a drop of water on the feed side of the membrane was greater than about 100°, and thus was hydrophobic. The flux of Drug 1 across the membrane was determined using the procedures outlined in Example 1 as a function of the amount of Drug 1 added to the feed solution. […] Without wishing to be bound by any particular theory or mechanism of action, it is believed that without the hydrophilic surface, particles of crystalline drug contacted the permeate solution (decanol) directly and dissolved into the decanol permeate solution, resulting in high maximum fluxes of Drug 1 across the membrane.

[6] = membrane-permeation test, plasma-treated (hydrophilic feed side) membrane, PBS feed, decanol permeate; type: in vitro ADME
Procedure: A cold plasma was used to treat the feed side of a microporous membrane as follows. An Accurel® PP 1E microporous polypropylene membrane was obtained from Membrana GmbH (Wuppertal, Germany). This membrane has a nominal pore size of 0.1 μm, a thickness of about 92 μm, and a porosity of about 70%. The contact angle of a drop of water placed on the untreated membrane is greater than about 110°.
The membrane was rinsed five times in fresh isopropyl alcohol at room temperature for about 24 hours, for a total rinsing time of about 120 hours, and then allowed to air dry. Prior to treatment, the membrane was rinsed in methanol in a sonicating bath for 1 minute at ambient temperature, and then allowed to air dry at ambient temperature.
A sample of the membrane measuring about 10 cm by about 23 cm was placed into a glass-walled plasma chamber having an inside diameter of about 3 inches (7.5 cm). The membrane was positioned such that the permeate side of the membrane was against the glass wall of the plasma chamber. The atmosphere of the plasma chamber was saturated with water vapor at a pressure of 550 mtorr by placing a shallow tray of water into the chamber prior to reducing the pressure using a vacuum pump.
After achieving a constant pressure in the plasma chamber (about 3 to 5 minutes), the plasma was generated using radio frequency (RF) power inductively coupled into the chamber via annular electrodes. The power on the RF generator was set at 50 watts. The membrane was exposed to the plasma for 45 seconds, after which the power was turned off and the pressure in the chamber increased to ambient using air. The contact angle of a drop of water placed on the surface of the plasma-treated membrane was about 40°. The contact angle of a drop of water placed on the permeate side of the same membrane was greater than about 110°.
The crystalline form of the cholesteryl ester transfer protein (CETP) inhibitor [2R,4S]4-[(3,5-bis-trifluoromethyl-benzyl)-methoxycarbonyl-amino]-2-ethyl-6-trifluoromethyl-3,4-dihydro-2H-quinoline-1-carboxylic acid ethyl ester, also known as torcetrapib (“Drug 1”) was evaluated in a membrane-permeation test. An apparatus similar to the one shown schematically in FIG. 3 was assembled as follows. A permeate reservoir was formed by gluing a sample of the plasma-treated membrane described above to a glass tube having an inside diameter of about 1 inch (2.54 cm) using an epoxy-based glue (LOCTITE® E-30CL HYSOL® from Henkel Loctite Corp, Rocky Hill, Conn.). The feed-side of the membrane was oriented so that it was on the outside of the permeate reservoir, while the permeate-side of the membrane was oriented so that it was on the inside of the reservoir. The glue was allowed to set by placing the permeate reservoir in an oven at 50° C. and 25% relative humidity (RH) overnight. The contact angle of a drop of water on the feed side of the membrane after assembling the permeate reservoir was about 50°. The effective membrane area of the permeate reservoir was about 4.9 cm^2.
[…] […] This is well in excess of the solubility of Drug 1 in water, estimated to be less than about 0.04 μg/mL. The feed solution was mixed on a vortex mixer for about 1 minute.
The apparatus was assembled by first filling the permeate reservoir with the permeate solution. The permeate reservoir, with attached membrane, was placed within a glass feed reservoir about 3.3 cm in diameter such that the membrane was held about 1 cm above the bottom of the feed reservoir, and the membrane was wetted by the permeate solution. The feed reservoir was equipped with a magnetic stir bar and the reservoir was placed on a stir plate and adjusted to a stir rate of 600 rpm. Care was taken to ensure no air bubbles were trapped beneath the feed side of the membrane. Time 0 was taken as the time the permeate reservoir was placed within the feed solution reservoir such that the feed solution contacted the membrane surface. […]

[7] = organic solvent or mixture, solubility in organic fluid
[8] = water, aqueous solubility (solubility in water)

## CC[C@@H]1C[C@H](N(Cc2cc(C(F)(F)F)cc(C(F)(F)F)c2)C(C)=O)c2cc(C(F)(F)F)ccc2N1C(=O)OC(C)C [Drug 3, [2R,4S]4-[acetyl-(3,5-bis-trifluoromethyl-benzyl)-amino]-2-ethyl-6-trifluoromethyl-3,4-dihydro-2H-quinoline-1-carboxylic acid isopropyl ester]
[1]; 20 wt % decanol in decane / water
  partition coefficient between the organic fluid and water: greater than 250,000
[2]
  Maximum Flux of Drug 3: 0.06 μg/cm^2-min
[3]; [7]
  solubility: > 25 mg/mL
[3]; [8]
  solubility: < 0.0001 mg/mL

## O=C(N[C@@H](Cc1ccccc1)[C@@H](O)C(=O)N1C[C@@H](O)[C@@H](O)C1)c1cc2cc(Cl)ccc2[nH]1 [Drug 2, 5-chloro-1H-indole-2-carboxylic acid [(1S)-benzyl-(2R)-hydroxy-3-((3R,4S)-dihydroxy-pyrrolidin-1-yl-)-3-oxypropyl]amide]
[1]
  partition coefficient between the organic fluid and water: about 12

## CCOC(=O)N1c2ccc(C(F)(F)F)cc2[C@@H](N(Cc2cc(C(F)(F)F)cc(C(F)(F)F)c2)C(=O)OC)C[C@H]1CC [Drug 1, [2R,4S]4-[(3,5-bis-trifluoromethyl-benzyl)-methoxycarbonyl-amino]-2-ethyl-6-trifluoromethyl-3,4-dihydro-2H-quinoline-1-carboxylic acid ethyl ester]
[4]; oral OPC 90 mgA Drug 1
  Tmax: 2.3 ± 1.9 h
[4]; oral OPC 90 mgA Drug 1, read-out: AUC0-24
  AUC(0-t): 928 ± 642 µg·h/mL
[4]; oral OPC 90 mgA Drug 1, read-out: Cmax,24
  Cmax: 191 ± 55 µg/mL
[5]; 25 μg/mL Drug 1 added to the feed
  Maximum Flux of Drug: 0.75 μg/cm^2-min
[5]; 50 μg/mL Drug 1 added to the feed
  Maximum Flux of Drug: 1.5 μg/cm^2-min
[5]; 80 μg/mL Drug 1 added to the feed
  Maximum Flux of Drug: 4.0 μg/cm^2-min
[5]; 200 μg/mL Drug 1 added to the feed
  Maximum Flux of Drug: 7.1 μg/cm^2-min
[5]; 400 μg/mL Drug 1 added to the feed
  Maximum Flux of Drug: 12.6 μg/cm^2-min
[5]; 700 μg/mL Drug 1 added to the feed
  Maximum Flux of Drug: 26 μg/cm^2-min
[5]; 1000 μg/mL Drug 1 added to the feed
  Maximum Flux of Drug: 32 μg/cm^2-min
[1]
  partition coefficient between the organic fluid and water: greater than 650,000
  partition coefficient of the drug between the organic fluid and PBS: greater than 650,000
[6]; 89 μg/mL added to PBS feed, 80 to 160 minutes
  Maximum Flux of Drug 1: 0.025 μg/cm^2-min
[6]; 1000 μg/mL added to PBS feed, 90 to 210 minutes
  Maximum Flux of Drug 1: 0.028 μg/cm^2-min
[6]; 90 to 210 minutes, 1000 μg/mL added to PBS feed
  slope of permeate concentration versus time (least-squares fit): 0.035 μg/mL-min
[6]; time 0 min, 89 μg/mL added to PBS feed
  Drug 1 Concentration in Permeate: 0.0 µg/mL
[6]; time 0 min, 1000 μg/mL added to PBS feed, 37° C., average of duplicate tests
  Drug 1 Concentration in Permeate: 0.0 µg/mL
[6]; time 20 min, 89 μg/mL added to PBS feed
  Drug 1 Concentration in Permeate: 0.0 µg/mL
[6]; time 30 min, 1000 μg/mL added to PBS feed
  Drug 1 Concentration in Permeate: 0.0 µg/mL
[6]; time 40 min, 89 μg/mL added to PBS feed
  Drug 1 Concentration in Permeate: 0.0 µg/mL
[6]; time 60 min, 89 μg/mL added to PBS feed
  Drug 1 Concentration in Permeate: 0.0 µg/mL
[6]; time 60 min, 1000 μg/mL added to PBS feed
  Drug 1 Concentration in Permeate: 0.0 µg/mL
[6]; time 80 min, 89 μg/mL added to PBS feed
  Drug 1 Concentration in Permeate: 1.7 µg/mL
[6]; time 90 min, 1000 μg/mL added to PBS feed
  Drug 1 Concentration in Permeate: 3.3 µg/mL
[6]; time 100 min, 89 μg/mL added to PBS feed
  Drug 1 Concentration in Permeate: 2.2 µg/mL
[6]; time 120 min, 89 μg/mL added to PBS feed
  Drug 1 Concentration in Permeate: 3.0 µg/mL
[6]; time 120 min, 1000 μg/mL added to PBS feed
  Drug 1 Concentration in Permeate: 4.5 µg/mL
[6]; time 140 min, 89 μg/mL added to PBS feed
  Drug 1 Concentration in Permeate: 3.7 µg/mL
[6]; time 150 min, 1000 μg/mL added to PBS feed
  Drug 1 Concentration in Permeate: 6.9 µg/mL
[6]; time 160 min, 89 μg/mL added to PBS feed
  Drug 1 Concentration in Permeate: 4.0 µg/mL
[6]; time 210 min, 1000 μg/mL added to PBS feed
  Drug 1 Concentration in Permeate: 7.4 µg/mL
[6]; time 240 min, 1000 μg/mL added to PBS feed
  Drug 1 Concentration in Permeate: 9.2 µg/mL
[6]; time 270 min, 1000 μg/mL added to PBS feed
  Drug 1 Concentration in Permeate: 11.8 µg/mL
[6]; time 300 min, 1000 μg/mL added to PBS feed
  Drug 1 Concentration in Permeate: 12.2 µg/mL
[6]; time 330 min, 1000 μg/mL added to PBS feed
  Drug 1 Concentration in Permeate: 14.9 µg/mL
[6]; time 360 min, 1000 μg/mL added to PBS feed
  Drug 1 Concentration in Permeate: 13.9 µg/mL
[6]; time 390 min, 1000 μg/mL added to PBS feed
  Drug 1 Concentration in Permeate: 16.9 µg/mL
[6]; time 420 min, 1000 μg/mL added to PBS feed
  Drug 1 Concentration in Permeate: 21.4 µg/mL
[6]; time 450 min, 1000 μg/mL added to PBS feed
  Drug 1 Concentration in Permeate: 21.5 µg/mL
[2]
  Maximum Flux of Drug 1: 0.012 μg/cm^2-min
  maximum flux in solution modeling the fed state relative to MFD solution: 7,6 fold
[3]; aqueous buffer, aqueous solubility in PBS
  solubility: < 4e-05 mg/mL
[3]; organic solvent or mixture, solubility in decanol
  solubility: > 25 mg/mL
[3]; [7]
  solubility: ~25 mg/mL (≈ 41.6 mM)
[3]; [8]
  solubility: < 4e-05 mg/mL
